Results from patent US11832638B2, “N-acyl derivatives of gamma amino-butyric acid and beta alanine as food flavouring compounds” (GIVAUDAN SA, priority 2012, dated 2023).

Columns and labels:
[1] = Tasting in butter (Blueband halvarine); settings: 1 ppm in Blueband halvarine 39% fat 0.35% salt
Description: (§1) The following formulations were prepared and tasted by trained panelists.
Blueband “halvarine” 39% fat 0.35% salt
C18:2-gaba added at 1 ppm.

[2] = Tasting in low fat mayonnaise; settings: 0.5 ppm in low fat mayonnaise (27% fat)
Description: as §1
Fat levels between 10-80%
Low fat Mayonnaise (27% Fat)

[3] = Tasting in low fat salad dressing; settings: 0.5 PPM in low fat salad dressing (13.6% fat)
Description: as §1
low fat salad dressing (13.6% Fat)

[4] = Tasting in fried potato snack product with cheese seasoning; settings: fried potato base 35% fat
Description: Snack Product A snack product consisting of a fried potato base, containing 35% fat and flavored with cheese seasoning containing salt, MSG, dairy, organic acids, sugars, and a flavour formulation. The following compounds were added to the snack product at the indicated levels and the tasting results arc reported: […]

[5] = Tasting in air expanded base with cheese seasoning; settings: air expanded base 3% fat
Description: Air Expanded Base An air expanded base (Rice, wheat, Tapioca, potato, salt, sugar, modified starch), containing 3% fat and flavored with cheese seasoning containing salt, MSG, dairy, organic acids, sugars and flavor. The following compounds were added to the base at the indicated levels and the tasting results are reported: […]

[6] = UHT sweetened banana flavoured milk, different fat levels; settings: banana flavour 0.04%
Description: UHT Sweetened Banana Flavoured Milk, With Different Fat Levels
In a UHT milk with 0% and 3% fat sweetened with 4% sucrose by weight, flavoured with proprietary banana flavour dosed at 0.04%. C18:2 gaba was added at 0.25 ppm, 0.5 ppm and 1 ppm.
Samples were evaluated by expert tasters. Tasters were asked to describe the samples focusing on authentic taste, mouthfeel, fullness, salivation, sweetness, juiciness, richness, long lastingness and fattiness.

[7] = Yoghurt cream flavoured non-sweetened, different fat levels; settings: 2 ppm, cream flavour 0.03%
Description: Yoghurt Cream Flavoured Non-sweetened And Different Fat Levels
In a Yoghurt containing 0% 1.5% and 3% fat, flavoured with proprietary cream flavour dosed at 0.03%, C18:2-gaba was added at 2 ppm. Samples were evaluated by expert tasters. Tasters were asked to describe the samples focusing on authentic taste, mouthfeel, fullness, salivation, sweetness, juiciness, richness, long lastingness and fattiness.

[8] = Mango flavoured still beverage with different levels of juice; settings: 1 ppm, 8% sucrose, 0.1% citric acid, mango flavor 0.05%
Description: Mango Flavoured Still Beverage Containing Different Levels Of Juice.
In a Mango flavoured still beverage, sweetened with 8% sucrose and containing 0.1% citric acid and 1%, 4% and 6% clear mango juice flavoured with a proprietary Mango flavour @ 0.05%, C18:2-gaba was added, as such.
All samples were evaluated by expert tasters. Tasters were asked to describe the samples focusing on authentic taste, juicy mouthfeel, enhancement, richness, juiciness, long lastingness, salivation, sweetness.
In a Mango flavoured still beverage, sweetened with 8% sucrose & containing 0.1% citric acid and 1% clear mango juice flavoured with proprietary Mango flavour @ 0.05%, C18:2-gaba was added, as such.
Base is water, 8% sucrose, 0.1% citric acid, 1% clear mango juice (very low juice %) , flavoured with Mango flavor, dosed at 0.05%
In a Mango flavoured still beverage, sweetened with 8% sucrose & containing 0.1% citric acid and 4% clear mango juice flavoured with Mango flavour @ 0.05% , C18:2-gaba and C18:2-Pro were added, as such (separate) and in combination.
Base is water, 8% sucrose, 0.1% citric acid, 4% clear mango juice (30% reduced juice), flavoured with Mango flavor, dosed at 0.05%
A Mango-flavoured still beverage, sweetened with 8% sucrose & containing 0.1% citric acid and 6% clear mango juice flavoured with Mango flavour @ 0.05%, C18:2-gaba
Base is water, 8% sucrose, 0.1% citric acid, 6% clear mango juice (full juice), flavoured with Mango flavor, dosed at 0.05%.

Test on Heineken beer = settings: 0.5 ppm
Description: In Heineken beer (Market Product) C18:2-gaba was added at 0.5 ppm.
Samples were evaluated by expert tasters. Tasters were asked to describe the samples focusing on authentic taste, alcohol impact, malt taste, hop taste, mouthfeel, fullness, salivation, sweetness, bitterness, richness, long lastingness and fattiness.

Test on Breezer Orange = settings: 0.5 ppm
Description: Samples were evaluated by expert tasters. Tasters were asked to describe the samples focusing on authentic taste, alcohol impact, juiciness, mouthfeel, fullness, salivation, sweetness, bitterness, richness, long lastingness and fattiness.

[9] = Test on organic acids in a beverage; settings: 1 ppm, water, 7% sucrose
Description: Testing With Beverages Containing Organic Acids From 0.01% to 7%
Test 18:2 Gaba on Organic Acids in a Beverage.
In a solution containing water, 7% sucrose by weight, and different organic acids, C18:2-gaba was added at 1 ppm. We observed taste effects on the acid perception upon addition of C18:2-gaba.
Base is water, 7% Sucrose by weight, Tartaric acid at 0.121% by weight
Base is water, 7% Sucrose by weight, Malic acid at 0.1081% by weight
Base is water, 7% Sucrose by weight, Citric acid at 0.1% by weight
Base is water, 7% Sucrose by weight, Fumaric acid at 0.0936% by weight

Test on Eru Prestige = settings: 0.5 ppm
[10] = Test on menthol fondant (1%); settings: 2 ppm, fondant 65%, sugar syrup 34%, menthol flavour 1%
Excerpt: Test on Menthol Fondant (1%)
Base is Fondant 65%, sugar syrup 34% and a proprietary menthol flavour at 1%

[11] = Comparison in beef bouillon; settings: 2 ppm, Maggi beef bouillon 1 tablet in 500 ml hot water
Description: Comparison in Beef Bouillon
Base is Maggi beef bouillon 1 tablet in 500 ml of hot water

CCCCC/C=C\C/C=C\CCCCCCCC(=O)NCCCC(=O)O [C18:2-gaba]
tasting result (trained panelists) [1]: more authentic butter taste, with more mouthfeel | tasting result (trained panelists) [2]: creamy, thick mouthfeel with a full fat impression | tasting result (trained panelists) [3]: better mouthfeel that was impressively creamy | tasting result ([4]; 0.5 ppm): increased dairy, cheesy | tasting result ([4]; 1 ppm): Fatty full, cheesy, cheese crust, long lasting | tasting result ([5]; 0.5 ppm): Increased dairy, cheese | tasting result ([5]; 1 ppm): Fatty full, cheesy, cheese crust, long lasting, cover base | description by expert tasters ([6]; 0.25 ppm, UHT milk 0% fat): fuller banana, more authentic, more sweet | description by expert tasters ([6]; 0.25 ppm, UHT milk 3% fat): more authentic, less estery and more round | description by expert tasters ([6]; 0.5 ppm, UHT milk 0% fat): fuller banana, authentic, creamy and sweet | description by expert tasters ([6]; 0.5 ppm, UHT milk 3% fat): creamy banana | description by expert tasters ([6]; 1 ppm, UHT milk 0% fat): creamy, creamy banana, sweet aftertaste | description by expert tasters ([6]; 1 ppm, UHT milk 3% fat): creamy long lasting and more authentic and more impact | description by expert tasters ([7]; yoghurt 0% fat): less acdic, slight creamy aftertaste | description by expert tasters ([7]; yoghurt 1.5% fat): very creamy, thick, nice long lasting, whipped cream note | description by expert tasters ([7]; yoghurt 3% fat): less acidic, much more creamy, very long lasting creamy aftertaste | description by expert tasters ([8]; 1% clear mango juice): fatty skin-like, very juicy, authentic mango, much more mouthfeel, long lasting mango taste, mouthfeel is close to the full juice product | description by expert tasters ([8]; 4% clear mango juice): fatty skin-like, very juicy, authentic mango, long lasting mango taste, more mouthfeel than the full juice product | description by expert tasters ([8]; 6% clear mango juice (full juice)): fatty skin-like, very thick juicy, authentic mango, long lasting mango taste, rich | description by expert tasters (Test on Heineken beer): more hoppy, more bitter, more malt and stronger alcohol impact | description by expert tasters (Test on Breezer Orange): more alcoholic, sweeter, more juicy orange, less soapy | taste effects on the acid perception ([9]; citric acid 0.1% by weight): decreased sharp acidic perception, full body mouthfeel, higher higher mouth watering, and an impression of the juicy notes of citrus fruit (orange, lemon) | taste effects on the acid perception ([9]; fumaric acid 0.0936% by weight): decreased sharp acidic perception, full body mouthfeel effects, higher sweet effects, and an impression of the full notes characteristic of sweet red & vanillic flavor types (vanilla, chocolate, raspberry, cherry, especially benzaldhyde) | taste effects on the acid perception ([9]; malic acid 0.1081% by weight): decreased sharp acidic perception, give fuller body, mouthfeel, higher mouthwatering, and an impression of the flesh and skin notes of fruit (apple) | taste effects on the acid perception ([9]; tartaric acid 0.121% by weight): decreased sharp acidic perception, full body mouthfeel, higher mouthwatering, more immediate (upfront hit), and an impression of the flesh of fruit (grape, apple, banana, pear-like) | taste description (Test on Eru Prestige): full salty, much more cheese bite, umami, lingering, long lasting | taste description [10]: increased menthol impact, stronger cooling more sweet, long lasting, fresh | taste description [11]: salty, savoury, full
